Test results: US20180161314A1, “Methods for Treating Hyperuricemia and Related Diseases” (Ardea Biosciences, Inc., priority 2010, published 2018)
Like-named read-outs stand apart in the source and are kept apart here.

Experiments:
[1] = system: gout patients with hyperuricemia; format: in vivo; details: for Mean absolute sUA reduction / Mean sUA % change / Mean sUA level: ± SE; for % Response rate for sUA falling below 4 mg/dL / % Response rate for sUA falling below 5 mg/dL / % Response rate for sUA falling below 6 mg/dL: allopurinol 300 mg
Method: Study Objectives • To measure the effect of drug 1, alone and in combination with allopurinol, on serum urate concentration. • To evaluate the safety and tolerability of drug 1 in combination with allopurinol.
The study is open-label in gout patients with hyperuricemia, involving 2 panels of ˜10-12 patients per panel. The panels may be enrolled simultaneously.
Panel 1 receives a once-daily dose of allopurinol 300 mg alone for 7 days and for an additional 7 days in combination with a once-daily dose of drug 1 400 mg. Patients then receive 7 days of a once-daily dose of drug 1 400 mg alone. Panel 2 follows the same regimen as panel 1, at doses of allopurinol 300 mg and drug 1 600 mg.
• Day −10 to Day 28: colchicine prophylaxis; or • Day −7 to Day 28: colchicine prophylaxis (for patients not washing out from ULT) • Days 1-7: allopurinol 300 mg qd • Days 8-14: drug 1 400 mg qd+allopurinol 300 mg qd • Days 15-21: drug 1 400 mg qd
• Day −10 to Day 28: colchicine prophylaxis; or • Day −7 to Day 28: colchicine prophylaxis (for patients not washing out from ULT) • Days 1-7: allopurinol 300 mg qd • Days 8-14: drug 1 600 mg qd+allopurinol 300 mg qd • Days 15-21: drug 1 600 mg qd
Gout patients on a urate lowering therapy (ULT), have previously taken a ULT or who have never taken a ULT are eligible to participate. Screening procedures to determine patient eligibility are performed within approximately 14 days of the first dose of study drug (Day 1). Subjects currently on ULT wash-out for at least 10 days before Day 1, and begin colchicine (Colcry® 0.6 mg qd, URL Pharma) as prophylaxis for gout flares at the beginning of the wash-out period. Subjects not on ULT begin colchicine administration at least 7 days prior to Day 1. Patients intolerant of colchicine during the screening period are considered screen failures and not enrolled. Prophylactic administration of colchicine continues for 7 days after the last dose of study medication.
Eligible patients report to the study center early morning on Days −1, 7, 14, and 21 (or the afternoon/evening the day before). Serial blood samples are collected on Days −1, 7, 14, and 21. Study medication is administered to each patient and taken orally every morning with approximately 240 mL of water, at approximately the same time of the morning every day, and approximately 30 minutes after finishing a full breakfast (approximately 650 Kcal and 35% fat); the breakfast is standardized on Days −1 to 21.
Inclusion Criteria • Patient is male or post-menopausal or surgically sterile female. • Patient is 18-80 years of age. • Patient meets one or more criteria for the diagnosis of gout as per the American Rheumatism Association (ARA) Criteria for the Classification of Acute Arthritis of Primary Gout (Appendix B). • Patient sUA≥8 mg/dL at screening. • Patient willing and able to give informed consent and adhere to visit/protocol schedules • No clinically relevant abnormalities in blood pressure (BP), heart rate (HR), body temperature and respiratory rate as per Investigator's judgment.
Subject urate serum levels are recorded, and any safety concerns assessed (by adverse events, clinical laboratory test results, vital signs, 12-lead ECGs, and physical examinations). […] Urate serum concentrations are evaluated for treatment- and/or time-dependent changes relative to baseline (Day −1), and may be expressed both in standard units (mg/dL) and as changes from baseline (e.g., percent change, absolute change, maximal change, and time or day of maximal change).
Drug 1 was tested according to the protocol described in Example 21.
Serum urate levels were measured and absolute and % reduction levels from baseline calculated, for Allopurinol monotherapy, Drug 1 monotherapy and Allopurinol plus Drug 1 combination.

[2] = biological target: T1, PNP (Homo sapiens, UniProt P00491); details: cited from earlier work
T1 sequence (P00491 1-289): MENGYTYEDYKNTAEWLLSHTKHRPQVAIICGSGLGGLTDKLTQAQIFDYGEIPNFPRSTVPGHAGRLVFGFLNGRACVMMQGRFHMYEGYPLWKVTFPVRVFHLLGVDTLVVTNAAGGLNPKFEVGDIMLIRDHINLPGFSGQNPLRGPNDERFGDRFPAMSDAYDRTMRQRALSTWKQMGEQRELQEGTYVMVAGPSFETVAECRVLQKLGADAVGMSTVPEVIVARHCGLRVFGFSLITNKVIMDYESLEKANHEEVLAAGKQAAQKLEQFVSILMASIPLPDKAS

[3] = Drug 1 400 mg panel: allopurinol 300 mg qd days 1-7, combination days 8-14, drug 1 400 mg qd alone days 15-21
[4] = Drug 1 600 mg panel: allopurinol 300 mg qd days 1-7, combination days 8-14, drug 1 600 mg qd alone days 15-21

O=C(O)CSc1nnc(Br)n1-c1ccc(C2CC2)c2ccccc12 [Drug 1, Sodium 2-(5-bromo-4-(4-cyclopropylnaphthalen-1-yl)-4H-1,2,4-triazol-3-ylthio)acetate]
Mean absolute sUA reduction [1, 3]: -3.0 ± 0.46 mg/dL
Mean sUA % change [1, 3]: −30.2 ± 3.7%
Mean sUA level [1, 3]: 6.6 ± 0.22 mg/dL
% Response rate for sUA falling below 4 mg/dL ([1]; Drug 1 400 mg panel): 0%
% Response rate for sUA falling below 5 mg/dL ([1]; Drug 1 400 mg panel): 0%
% Response rate for sUA falling below 6 mg/dL ([1]; Drug 1 400 mg panel): 20%
Mean absolute sUA reduction [1, 4]: -3.3 ± 0.23 mg/dL
Mean sUA % change [1, 4]: −37.2 ± 2.6%
Mean sUA level [1, 4]: 5.7 ± 0.41 mg/dL
% Response rate for sUA falling below 4 mg/dL ([1]; Drug 1 600 mg panel): 0%
% Response rate for sUA falling below 5 mg/dL ([1]; Drug 1 600 mg panel): 33%
% Response rate for sUA falling below 6 mg/dL ([1]; Drug 1 600 mg panel): 67%
Inhibition of PNP [2]: does not significantly inhibit
